The source of these data is US6447749B1, “Perfluoro-alkyl containing dye molecules and galencial formulations” (Schering Aktiengesellschaft, priority 1999, dated 2002).

Structures can show the parent of a compound that is named as a salt.

A short description of series [1]: Photophysical characterization: absorption maxima and extinction coefficients (Lambda 2-spectrometer). Format: physicochemical. The following applies: formulation with Gd-complex perfluoroalkyl derivative (WO 97/26017 Ex. 33). Here is the method: (§1) The determination of the absorption maxima and extinction coefficients was carried out with a Lambda 2-spectrometer (Perkin-Elmer Company). The fluorescence properties were determined on a SPEX-fluorolog (Instruments S. A. Company, photomultiplier Hamamatsu PM928, excitation 350W xenon lamp). the determination of the fluorescence quantum yield was carried out relative to indocyanine green (O=13% in DMSO) by excitation at 585 nm (dyes with p=2) or 685 nm (dyes with p=3), in each case of solutions of concentration 2 μM in dye, and correction with the spectral sensitivity of lamp and detector.

Series [2] in a line: Photophysical characterization: fluorescence properties and fluorescence quantum yield (SPEX-fluorolog, relative to indocyanine green). The following applies: formulation with Gd-complex perfluoroalkyl derivative (WO 97/26017 Ex. 33); for Fluorescence quantum yield: 2 μM in dye. Format: physicochemical. Here is the method:
as §1

For series [3] the following is noted: in DMSO; cited from earlier work.
[4] abbreviates: dyes 7-14 table, 5 mol % of dye.

As for `CC1(C)C(=CC=CC=CC2=[N+](CCCCS(=O)(=O)[O-])c3ccc(C(=O)N(CCOCCC(F)(F)C(F)(F)C(F)(F)C(F)(F)C(F)(F)C(F)(F)C(F)(F)C(F)(F)F)CC(O)CO)cc3C2(C)C)N(CCCCS(=O)(=O)[O-])c2ccccc21.[Na+]` (stereo not shown) [Dye 9, 5-{N-[2-(3,3,4,4,5,5,6,6,7,7,8,8,9,9,10,10,10-heptadecafluorodecyloxy)ethyl]-N-(2,3-dihydroxypropyl)aminocarbonyl}-2-{7-[1,3-dihydro-3,3-dimethyl-1-(4-sulfobutyl)-2H-indol-2-ylidene]-1,3-pentadienyl}-3,3-dimethyl-1-(4-sulfobutyl)-3H-indolium, internal salt, sodium salt], the Absorption max. was 651 nm in series [1] (setting [4]); 652 nm in series [1] (1 mol % of dye); 651 nm in series [1] (2 mol % of dye); 651 nm in series [1] (5 mol % of dye); 649 nm in series [1] (10 mol % of dye). Also, the Extinction coefficient in series [1] (setting [4]) was 123,700 L mol^−1 cm^−1; in series [1] (1 mol % of dye) it was 132,000 L mol^−1 cm^−1; in series [1] (2 mol % of dye) it was 130,200 L mol^−1 cm^−1; in series [1] (5 mol % of dye), 123,700 L mol^−1 cm^−1; in series [1] (10 mol % of dye), 110,900 L mol^−1 cm^−1. Moreover, the Fluorescence max. in series [2] (setting [4]) amounted to 685 nm; in series [2] (1 mol % of dye), 681 nm; in series [2] (2 mol % of dye), 683 nm; in series [2] (5 mol % of dye), 685 nm; in series [2] (10 mol % of dye) it was 685 nm. In addition, the Fluorescence quantum yield is 0.12 in series [2] (setting [4]); 0.17 in series [2] (1 mol % of dye); 0.18 in series [2] (2 mol % of dye); 0.12 in series [2] (5 mol % of dye); 0.04 in series [2] (10 mol % of dye).

For `CCN1C(=CC=CC=CC=CC2=[N+](CCCCS(=O)(=O)[O-])c3ccc(C(=O)NCCOCCC(F)(F)C(F)(F)C(F)(F)C(F)(F)C(F)(F)C(F)(F)C(F)(F)C(F)(F)F)cc3C2(C)C)C(C)(C)c2ccccc21` [Dye 12, 2-[5-(1-ethyl)-1,3-dihydro-3,3-dimethyl-2H-indol-2-ylidene)-1,3,5-heptatrienyl]-5-{N-[2-(3,3,4,4,5,5,6,6,7,7,8,8,9,9,10,10,10-heptadecafluorodecyloxy)-ethyl]-aminocarbonyl}-3,3-dimethyl-1-(4-sulfobutyl)-3H-indolium, internal salt, sodium salt], in series [1] (setting [4]), the Absorption max. was determined as 754 nm and the Extinction coefficient is 118,800 L mol^−1 cm^−1. In series [2] (setting [4]), this compound registered a Fluorescence max. of 788 nm and a Fluorescence quantum yield of 0.13.

In the case of `CCN1C(=CC=CC=CC2=[N+](CCCCS(=O)(=O)[O-])c3ccc(C(=O)NCCOCCC(F)(F)C(F)(F)C(F)(F)C(F)(F)C(F)(F)C(F)(F)C(F)(F)C(F)(F)F)cc3C2(C)C)C(C)(C)c2ccccc21` [Dye 11, 2-[5-(1-Ethyl)-1,3-dihydro-3,3-dimethyl-2H-indol-2-ylidene)-1,3-pentatrienyl]-5-{N-[2-(3,3,4,4,5,5,6,6,7,7,8,8,9,9,10,10,10-heptadecafluorodecyloxy)ethyl]-aminocarbonyl}-3,3-dimethyl-1-(4-sulfobutyl)-3H-indolium, internal salt, sodium salt], in series [1] (setting [4]), the Absorption max. came out at 653 nm and the Extinction coefficient is 145,000 L mol^−1 cm^−1. Moreover, in series [2] (setting [4]), the Fluorescence max. turned out to be 683 nm and the Fluorescence quantum yield is listed as 0.14.

Take `CCN1C(=CC=CC=CC=CC2=[N+](CCCCS(=O)(=O)[O-])c3ccc(C(=O)N(CCOCCC(F)(F)C(F)(F)C(F)(F)C(F)(F)C(F)(F)C(F)(F)C(F)(F)C(F)(F)F)CC(O)CO)cc3C2(C)C)C(C)(C)c2ccccc21` (stereo not shown) [Dye 14, 2-[5-(1-ethyl)-1,3-dihydro-3,3-dimethyl-2H-indol-2-ylidene)-1,3,5-heptatrienyl]-5-{N-[2-(3,3,4,4,5,5,6,6,7,7,8,8,9,9,10,10,10-heptadecafluorodecyloxy)-ethyl]-N-(2,3-dihydroxypropyl)aminocarbonyl}-3,3-dimethyl-1-(4-sulfobutyl)-3H-indolium, internal salt, sodium salt]: in series [1] (setting [4]), the Absorption max. worked out at 753 nm and the Extinction coefficient is given as 124,100 L mol^−1 cm^−1. In series [2] (setting [4]), this compound returned a Fluorescence max. of 789 nm and a Fluorescence quantum yield of 0.09.

Regarding `CCN1C(=CC=CC=CC2=[N+](CCCCS(=O)(=O)[O-])c3ccc(C(=O)N(CCOCCC(F)(F)C(F)(F)C(F)(F)C(F)(F)C(F)(F)C(F)(F)C(F)(F)C(F)(F)F)CC(O)CO)cc3C2(C)C)C(C)(C)c2ccccc21` (stereo not shown) [Dye 13, 2-[5-(1-ethyl)-1,3-dihydro-3,3-dimethyl-2H-indol-2-ylidene)-1,3-pentatrienyl]-5-{N-[2-(3,3,4,4,5,5,6,6,7,7,8,8,9,9,10,10,10-heptadecafluorodecyloxy)ethyl]-N-(2,3-dihydroxypropyl)aminocarbonyl}-3,3-dimethyl-1-(4-sulfobutyl)-3H-indolium, internal salt, sodium salt], in series [1] (setting [4]), the Absorption max. turned out to be 650 nm and the Extinction coefficient is 150,700 L mol^−1 cm^−1. For the same compound, in series [2] (setting [4]), the Fluorescence max. amounted to 684 nm and the Fluorescence quantum yield worked out at 0.16.

Consider `CC1(C)C(/C=C/C=C/C=C/C=C2\N(CCCCS(=O)(=O)O)c3ccc4ccccc4c3C2(C)C)=[N+](CCCCS(=O)(=O)[O-])c2ccc3ccccc3c21` [indocyanine green], for which the “fluorescence quantum yield (reference standard)” value in series [3] is recorded as 13%.
